Test results from patent US7550453B2, “2-alkoxy-3,4,5-trihydroxy-alkylamides, preparation thereof, compositions containing them and use thereof” (Aventis Pharma SA, priority 2004, dated 2009).

System: Hep-G2 cells
Assay: Inhibition of cell proliferation of Hep-G2 cells (intracellular ATP, CellTiterGlo)
Type: cell-based
Details: Homo sapiens, HepG2, 72 hours incubation, ATP content, read-out: IC 50 (μM)/HEP G2
Description: The antitumoral activity of products 1 to 10 was determined by measuring the inhibition of cell proliferation of Hep-G2 cells. The cells are subcultured in a cell culture medium at a concentration of 1000 cells per well, and incubated for 4 hours at 37° C. and 5% CO2.
Medium used for the Hep-G2 and HCT-116 cell culture: Dubelcco's modified Eagle's medium/Ham mixture F12 (Gibco); NEAA (10%; nonessential amino acids, Gibco); sodium pyruvate (1%, Gibco); L-glutamine (1%, Gibco); fetal calf serum (5%; PAA).
After 4 hours, the test products dissolved in a DMSO/cell culture medium mixture are added at various concentrations and the resulting mixtures are incubated for 72 hours at 37° C. and 5% CO2. The intracellular ATP content was measured using the CellTiterGlo test reagent (Promega).

IC50 [µM]	SMILES
18.3	CO[C@@H](C(=O)N[C@H]1CCCCN(Cc2ccc(-c3ccccc3)cc2)C1=O)[C@H](O)[C@@H](O)[C@H](O)C=NOCc1ccccc1 (racemic) [Ex 10, N—[(S)-1-(biphenyl-4-ylmethyl)-2-oxoperhydro-azepin-3-yl](2R,3R,4S,5S)-6-benzyloxyimino-3,4,5-trihydroxy-2-methoxyhexylamide]
1.19	CO[C@@H](C(=O)NC1CCCNC1=O)[C@H](O)[C@@H](O)[C@H](O)/C=C/C(C)(C)C (stereo partly drawn) [Ex 6, N-(2-oxopiperidin-3-yl)-(E)-(2R,3R,4S,5R)-3,4,5-trihydroxy-2-methoxy-8,8-dimethylnon-6-enamide]
1.11	CO[C@@H](C(=O)NC1Cc2ccccc2NC1=O)[C@H](O)[C@@H](O)[C@H](O)/C=C/C(C)(C)C (stereo partly drawn) [Ex 7, N-(2-oxo-1,2,3,4-tetrahydroquinolin-3-yl)-(E)-(2R,3R,4S,5R)-3,4,5-trihydroxy-2-methoxy-8,8-dimethylnon-6-enamide]
3.6	CO[C@@H](C(=O)N[C@H]1Cc2ccccc2[C@H]2CCCCN2C1=O)[C@H](O)[C@@H](O)[C@H](O)/C=C/C(C)(C)C [Ex 9, N-((7S,12bR)-6-oxo-1,2,3,4,6,7,8,12b-octa-hydropyrido[2,1-a][2]benzazepin-7-yl)-(E)-(2R,3R,4S,5R)-3,4,5-trihydroxy-2-methoxy-8,8-dimethylnon-6-enamide]

Second part, the compound before the results:

SMILES	IC50 [µM]
CO[C@@H](C(=O)NC1CCCCNC1=O)[C@H](O)[C@@H](O)[C@H](O)/C=C/C(C)C (some centres unmarked) [Bengamide E, reference compound]	7
CO[C@@H](C(=O)NC1Cc2ccccc2CN(C)C1=O)[C@H](O)[C@@H](O)[C@H](O)/C=C/C(C)(C)C (stereo partly drawn) [Ex 1, N-(2-Methyl-3-oxo-2,3,4,5-tetrahydro-1H-2-benzazepin-4-yl)-(E)-(2R,3R,4S,5R)-3,4,5-trihydroxy-2-methoxy-8,8-dimethylnon-6-enamide]	0.17
CO[C@@H](C(=O)N[C@H]1CCCCN(Cc2ccc(-c3ccccc3)cc2)C1=O)[C@H](O)[C@@H](O)[C@H](O)/C=C/C(C)(C)C [Ex 2, N—[(S)-1-(biphenyl-4-ylmethyl)-2-oxoperhydroazepin-3-yl]-(E)-(2R,3R,4S,5R)-3,4,5-trihydroxy-2-methoxy-8,8-dimethylnon-6-enamide]	1.3
CO[C@@H](C(=O)NC1CN(c2ccccc2)C1=O)[C@H](O)[C@@H](O)[C@H](O)/C=C/C(C)(C)C (stereo partly drawn) [Ex 3, N-(2-Oxo-1-phenylazetidin-3-yl)-(E)-(2R,3R,4S,5R)-3,4,5-trihydroxy-2-methoxy-8,8-dimethylnon-6-enamide]	0.48
CO[C@@H](C(=O)NC1CCNC1=O)[C@H](O)[C@@H](O)[C@H](O)/C=C/C(C)(C)C (stereo partly drawn) [Ex 4, N-(2-oxopyrrolidin-3-yl)-(E)-(2R,3R,4S,5R)-3,4,5-trihydroxy-2-methoxy-8,8-dimethylnon-6-enamide]	3.1
COC(=O)C1CC(NC(=O)[C@H](OC)[C@H](O)[C@@H](O)[C@H](O)/C=C/C(C)(C)C)C(=O)N1 (stereo partly drawn) [Ex 5, Methyl 5-oxo-4-((E)-(2R,3R,4S,5R)-3,4,5-tri-hydroxy-2-methoxy-8,8-dimethylnon-6-enoylamino)pyrrolidine-2-carboxylate]	26.7
CO[C@@H](C(=O)NC1CSCCNC1=O)[C@H](O)[C@@H](O)[C@H](O)/C=C/C(C)(C)C (stereo partly drawn) [Ex 8, N-(5-oxoperhydro-1,4-thiazepin-6-yl)-(E)-(2R,3R,4S,5R)-3,4,5-trihydroxy-2-methoxy-8,8-dimethylnon-6-enamide]	0.83
